For this experiment, the system named is GYP.Mur knock-in mice and control mice. As to the kind of experiment: Evaluation of anti-hypertensive medications: blood pressure after oral gavage. In kind it is in vivo, mouse (C57BL/6J). As for the experimental part: Mouse BP was measured using an 8-channel non-invasive blood pressure system, a conventional instrument for murine BP measurements with about 99% correlation to the invasive telemetry approach. The BP system is a traditional, tail-cuff method, with a volume-pressure recording (VPR) sensor-cuff (similar to a stethoscope) and an occlusion cuff (similar to the arm cuff for conventional human BP measurement). The instrument settings in this study were 5 acclimation cycles, 15 cycles per set, 250 mmHg as the maximal occlusion pressure, and 20 seconds for deflation. Before the measurement, the experimenter gently placed a mouse in a holder or at the entry point of the holder, from which the mouse could voluntarily walked into the holder. An occlusion cuff and a VPR cuff were then fitted onto the mouse tail. The holder carrying a cuffed mouse inside was moved to the warming platform and covered with a thermal blanket, which ensured the temperature of the tail to be within 32-35° C. during volume-pressure-based BP measurements. Invalid measurements were mostly due to unmet tail temperature or restless states of the animal, which were identified and excluded. After BP measurements, the mice were immediately put back to their own cage. The body weight (BW) of each mouse was measured for preparation of individual anti-hypertensive doses (in mg drug per Kg BW). The mice were individually administered by oral gavage of an anti-hypertensive drug mixed in 100 μL autoclaved ddH2O. The dose and maximal efficacy of an anti-hypertensive drug was determined based on the degrees of BP drop within an hour of anti-hypertensive administration. One dose of an anti-hypertensive drug was tested on a single day. On the morning of the test day, the blood pressure of GYP.Mur knock-in mice and age-matched control mice (wild-type mice) was first measured. Only the mice with SBP>120 mmHg on that day were tested with an anti-hypertensive medication. The BP and heart rates (HR) of the mice were measured at the 1st, 3rd, 5th, and the 24th hour post-medication. […]

For the molecule `CCOC(=O)C1=C(COCCN)NC(C)=C(C(=O)OC)C1c1ccccc1Cl` (stereo not drawn) [amlodipine], the “duration of sustained BP-lowering effects” value (following oral gavage, control and GYP.Mur knock-in mice) amounted to 5 h.

On to `C[C@H](CS)C(=O)N1CCC[C@H]1C(=O)O` [captopril], for which the “BP-lowering effects at the 3rd hour post-oral gavage” value (3rd hour post-oral gavage, compared with one hour, data not shown) is recorded as “slightly diminished”. Also, the “time after medication at which BP was lowered most substantially” value (oral gavage, control and GYP.Mur knock-in mice, data not shown) is listed as “one”.

For the origin of these results see patent US12685297B2, “Genetically modified mouse, methods for producing the same, and uses thereof” (MacKay Memorial Hospital, priority 2023, dated 2026).
